From ChEMBL document CHEMBL5625268, “Identification of novel benzothiazole derivatives as inhibitors of NEDDylation pathway to inhibit the progression of gastric cancer” (Bioorg Med Chem Lett, 2024)
Activity calls are given as the source filed them. The rule behind the calls is not given here.

Columns and labels:
[1] = test system: MGC-803; experiment: Induction of apoptosis in human MGC-803 cells assessed as viable cells at 1 uM incubated for 48 hrs by Annexin V-FITC/PI double staining based flow cytometry analysis (reference value: 97.3 %); format: functional; conditions: read-out: Activity
[2] = target: T1, NEDD8 activating enzyme (Homo sapiens) (UniProt Q8TBC4+Q13564); experiment: Inhibition of NAE in human MGC-803 cells assessed as reduction in NAE1-NEDD8 complex formation at 5 uM incubated for 24 hrs by Western blot analysis relative to control; format: cell-based
[3] = test system: MGC-803; experiment: Induction of apoptosis in human MGC-803 cells assessed as early apoptosis cells at 4 uM incubated for 48 hrs by Annexin V-FITC/PI double staining based flow cytometry analysis (reference value: 0.39 %); format: functional
[4] = test system: MGC-803; experiment: Induction of cell cycle arrest in human MGC-803 cells assessed as accumulation of cells in G2/M phase at 4 uM incubated for 24 hrs by flow cytometry analysis (reference value: 13.25%); format: functional
[5] = test system: MGC-803; experiment: Induction of cell cycle arrest in human MGC-803 cells assessed as accumulation of cells in S phase at 4 uM incubated for 24 hrs by flow cytometry analysis (reference value: 21.93%); format: functional
[6] = test system: A549; experiment: Antiproliferative activity against human A549 cells by CCK8 assay; format: functional, cell-based
[7] = test system: MGC-803; experiment: Induction of apoptosis in human MGC-803 cells assessed as late apoptosis cells at 4 uM incubated for 48 hrs by Annexin V-FITC/PI double staining based flow cytometry analysis (reference value: 1.95 %); format: functional
[8] = test system: MGC-803; experiment: Inhibition of colony formation in human MGC-803 cells incubated for 48 hrs by phase-contrast microscopy; format: functional, cell-based; conditions: dose 1-4 µM
[9] = test system: MGC-803; experiment: Induction of cell cycle arrest in human MGC-803 cells assessed as accumulation of cells at G1 phase at 1 uM incubated for 24 hrs by flow cytometry analysis (reference value: 64.82%); format: functional
[10] = test system: MGC-803; experiment: Induction of cell cycle arrest in human MGC-803 cells assessed as accumulation of cells in S phase at 2 uM incubated for 24 hrs by flow cytometry analysis (reference value: 21.93%); format: functional
[11] = test system: MGC-803; experiment: Induction of apoptosis in human MGC-803 cells assessed as necrotic cells at 4 uM incubated for 48 hrs by Annexin V-FITC/PI double staining based flow cytometry analysis (reference value: 0.37 %); format: functional
[12] = target: T1, NEDD8 activating enzyme (Homo sapiens); experiment: Inhibition of NAE in human MGC-803 cells assessed as reduction in UBC12-NEDD8 complex incubated for 24 hrs by Western blot analysis; format: cell-based; conditions: dose 1-5 µM
[13] = test system: MGC-803; experiment: Induction of apoptosis in human MGC-803 cells assessed as late apoptosis cells at 2 uM incubated for 48 hrs by Annexin V-FITC/PI double staining based flow cytometry analysis (reference value: 1.95 %); format: functional
[14] = test system: MGC-803; experiment: Induction of cell cycle arrest in human MGC-803 cells assessed as accumulation of cells in G2/M phase at 2 uM incubated for 24 hrs by flow cytometry analysis (reference value: 13.25%); format: functional
[15] = test system: MGC-803; experiment: Induction of apoptosis in human MGC-803 cells assessed as late apoptosis cells at 1 uM incubated for 48 hrs by Annexin V-FITC/PI double staining based flow cytometry analysis (reference value: 1.95 %); format: functional
[16] = test system: MCF7; experiment: Antiproliferative activity against human MCF7 cells by CCK8 assay; format: functional, cell-based
[17] = test system: MGC-803; experiment: Induction of cell cycle arrest in human MGC-803 cells assessed as accumulation of cells at G1 phase at 2 uM incubated for 24 hrs by flow cytometry analysis (reference value: 64.82%); format: functional
[18] = test system: MGC-803; experiment: Induction of cell cycle arrest in human MGC-803 cells assessed as accumulation of cells in G2/M phase at 1 uM incubated for 24 hrs by flow cytometry analysis (reference value: 13.25%); format: functional
[19] = Selectivity index, ratio of IC50 for human MGC-803 cells to IC50 for HUVECs
[20] = target: T1, NEDD8 activating enzyme (Homo sapiens); experiment: Inhibition of NAE in human MGC-803 cells assessed as reduction in cullin5 neddylation incubated for 24 hrs by Western blot analysis; format: cell-based; conditions: dose 1-5 µM
[21] = Selectivity index, ratio of IC50 for human MCF7 cells to IC50 for HUVECs
[22] = target: T1, NEDD8 activating enzyme (Homo sapiens); experiment: Inhibition of NAE in human MGC-803 cells assessed as reduction in NAE1-NEDD8 complex incubated for 24 hrs by Western blot analysis; format: cell-based; conditions: dose 1-5 µM
[23] = Cytotoxicity against HUVECs incubated for 72 hrs by CCK8 assay; format: toxicity, cell-based; conditions: human, HUVEC cells
[24] = target: T1, NEDD8 activating enzyme (Homo sapiens); experiment: Inhibition of NAE in human MGC-803 cells assessed as reduction in cullin1 neddylation incubated for 24 hrs by Western blot analysis; format: cell-based; conditions: dose 1-5 µM
[25] = test system: MGC-803; experiment: Induction of apoptosis in human MGC-803 cells assessed as early apoptosis cells at 2 uM incubated for 48 hrs by Annexin V-FITC/PI double staining based flow cytometry analysis (reference value: 0.39 %); format: functional
[26] = test system: MGC-803; experiment: Induction of cell cycle arrest in human MGC-803 cells assessed as accumulation of cells in S phase at 1 uM incubated for 24 hrs by flow cytometry analysis (reference value: 21.93%); format: functional
[27] = test system: MGC-803; experiment: Induction of apoptosis in human MGC-803 cells assessed as necrotic cells at 2 uM incubated for 48 hrs by Annexin V-FITC/PI double staining based flow cytometry analysis (reference value: 0.37 %); format: functional
[28] = test system: MGC-803; experiment: Induction of apoptosis in human MGC-803 cells assessed as early apoptosis cells at 1 uM incubated for 48 hrs by Annexin V-FITC/PI double staining based flow cytometry analysis (reference value: 0.39 %); format: functional
[29] = target: T1, NEDD8 activating enzyme (Homo sapiens); experiment: Inhibition of NAE in human MGC-803 cells assessed as reduction in cullin3 neddylation incubated for 24 hrs by Western blot analysis; format: cell-based; conditions: dose 1-5 µM
[30] = test system: MGC-803; experiment: Inhibition of cell migration in human MGC-803 cells incubated for 48 hrs by wound healing assay; format: functional, cell-based; conditions: dose 1-4 µM
[31] = test system: MGC-803; experiment: Induction of cell cycle arrest in human MGC-803 cells assessed as accumulation of cells at G1 phase at 4 uM incubated for 24 hrs by flow cytometry analysis (reference value: 64.82%); format: functional
[32] = test system: MGC-803; experiment: Induction of apoptosis in human MGC-803 cells assessed as viable cells at 4 uM incubated for 48 hrs by Annexin V-FITC/PI double staining based flow cytometry analysis (reference value: 97.3 %); format: functional; conditions: read-out: Activity
[33] = test system: MGC-803; experiment: Induction of ROS generation in human MGC-803 cells at 2 uM incubated for 24 hrs by DCFH-DA staining based flow cytometry analysis (reference value: 3.1%); format: functional
[34] = Selectivity index, ratio of IC50 for human A549 cells to IC50 for HUVECs
[35] = test system: MGC-803; experiment: Inhibition of cell migration in human MGC-803 cells assessed as reduction in wound closure rate at 4 uM incubated for 48 hrs by wound healing assay (reference value: 49%); format: functional
[36] = test system: MGC-803; experiment: Antiproliferative activity against human MGC-803 cells by CCK8 assay; format: functional, cell-based
[37] = test system: MGC-803; experiment: Induction of ROS generation in human MGC-803 cells at 1 uM incubated for 24 hrs by DCFH-DA staining based flow cytometry analysis (reference value: 3.1%); format: functional
[38] = test system: MGC-803; experiment: Induction of apoptosis in human MGC-803 cells assessed as viable cells at 2 uM incubated for 48 hrs by Annexin V-FITC/PI double staining based flow cytometry analysis (reference value: 97.3 %); format: functional; conditions: read-out: Activity
[39] = test system: KYSE-30; experiment: Antiproliferative activity against human KYSE-30 cells by CCK8 assay; format: functional, cell-based
[40] = test system: MGC-803; experiment: Induction of apoptosis in human MGC-803 cells assessed as necrotic cells at 1 uM incubated for 48 hrs by Annexin V-FITC/PI double staining based flow cytometry analysis (reference value: 0.37 %); format: functional
[41] = Selectivity index, ratio of IC50 for human KYSE-30 cells to IC50 for HUVECs
[42] = test system: MGC-803; experiment: Induction of ROS generation in human MGC-803 cells at 4 uM incubated for 24 hrs by DCFH-DA staining based flow cytometry analysis (reference value: 3.1%); format: functional

inhibition [2]: 100% | IC50 [6]: 870 nM | inhibition [12]: Dose-Dependent Effect | IC50 [16]: 960 nM | inhibition [20]: inactive | inhibition [22]: Dose-Dependent Effect | inhibition [24]: Dose-Dependent Effect | inhibition [29]: Dose-Dependent Effect | IC50 [36]: 1630 nM
Compound: CCc1ccc(C(=O)Nc2nc3ccc(NC(=O)C4CCN(Cc5ccccc5)CC4)cc3s2)cc1
viability at 1 µM [1]: 86.5% | Activity [3]: 8.54% | Activity [4]: 37.66% | Activity [5]: 17.12% | Activity [7]: 33.8% | inhibition [8]: Dose-Dependent Effect | Activity [9]: 68.08% | Activity [10]: 12.39% | Activity [11]: 0.11% | Activity [13]: 18.5% | Activity [14]: 25.9% | Activity [15]: 10.1% | Activity [17]: 61.71% | Activity [18]: 18.63% | Ratio IC50 [19]: 3.8 | Ratio IC50 [21]: 3.8 | IC50 at 72 h [23]: 6210 nM | Activity [25]: 7.92% | Activity [26]: 13.29% | Activity [27]: 0.23% | Activity [28]: 3.15% | inhibition [30]: Dose-Dependent Effect | Activity [31]: 45.22% | viability at 4 µM [32]: 57.6% | Activity [33]: 13.1% | Ratio IC50 [34]: 3.8 | inhibition at 4 µM [35]: < 20% | Activity [37]: 6.8% | viability at 2 µM [38]: 73.3% | IC50 [39]: 650 nM | Activity [40]: 0.18% | Ratio IC50 [41]: 3.8 | Activity [42]: 26.4%
